{"source": "patent US12304938B2", "about": "“Processes and intermediates for preparing tirzepatide” (Eli Lilly and Company, priority 2022, dated 2025)", "experiment": "Physical stability of solid form on isolation/drying (crystallization screen)", "type": "physicochemical", "conditions": "wet solids from 1:1 v/v ACN/MTBE slurry, upon isolation/drying", "method": "A crystallization screen was performed on Fmoc-G-P-S(tBu)-S(tBu)-G-OH (SEQ ID NO: 19) free form using various solvents and solvent mixtures. Different crystallization methods were employed including solvent-based techniques such as slurry, cooling, ambient and sub-ambient temperatures holding, solvent/anti-solvent addition, or combination of techniques, and non-solvent-based techniques such as heat stress.\nThree solid forms were identified: Fmoc-G-P-S(tBu)-S(tBu)-G-OH (SEQ ID NO: 19) Form A, Fmoc-G-P-S(tBu)-S(tBu)-G-OH (SEQ ID NO: 19) Form C, and Fmoc-G-P-S(tBu)-S(tBu)-G-OH (SEQ ID NO: 19) Form D. Form A was a solvated form produced from 1-propanol (1-PrOH) or mixtures containing 1-PrOH (such as 1-PrOH/heptane). Form D is a solvated form produced from acetonitrile (ACN) or mixtures containing ACN (such as ACN/MTBE). Form C is a conversion product when Form D is isolated and dried.\nThe suspension was seeded with Fmoc-G-P-S(tBu)-S(tBu)-G-OH (SEQ ID NO: 19) Form C and then left at ambient conditions to continue stirring for 2 days.", "note": "Peptide text beside a SMILES is read from it. * marks the point of attachment. Fmoc = O=C(OCC1c2ccccc2-c2ccccc21)*; tBu = CC(C)(C)*", "data": [{"smiles": "CC(C)(C)OC[C@H](NC(=O)[C@H](COC(C)(C)C)NC(=O)[C@@H]1CCCN1C(=O)CNC(=O)OCC1c2ccccc2-c2ccccc21)C(=O)NCC(=O)O", "note": "[Fmoc-Gly-Pro-Ser(tBu)-Ser(tBu)-Gly-OH] (Fmoc-GPS(tBu)S(tBu)G-OH)", "values": [{"measurement": "physical stability of solid form", "value": "physically not stable"}]}]}
